Laboratory results published in patent US12699090B2 (priority 2019, dated 2026).
Entries after “also recorded” stand apart in the source; their conditions may differ.

System: PBMCs isolated from naturally M. bovis-infected cattle
Type: cell-based, cattle (Bos taurus taurus)

Sequence | recognition of individual peptide (IFN-γ ELISPOT response, Z-scores)
AITHGPYCSQFNDTLNVYLTAHNALGSSLHTAGVDLAKSL (artificial protein fragment) [compound 10, long Rv3615c fragment] | poorly recognized
MAEMKTDAATLAQEAGNFERISGDLKTQIDQVESTAGSLQ [compound 5] | poorly recognized
NVTSIHSLLDEGKQSLTKLAAAWGGSGSEAYQGVQQKWDA [peptide 2] | poorly and infrequently recognized
QEAGNFERISGDLKTQ [peptide 25] | strongly recognized; also recorded: recognized promiscuously
MTENLTVQPERLGVLASHHDNAAVDASSGVEAAAGLGESV (artificial protein fragment) [compound 9, long Rv3615c fragment] | poorly recognized
AITHGPYCSQFNDTLNVYLT (artificial protein fragment) [compound 39, short Rv3615c peptide] | poor recognition could be compensated
AANKQKQELDEISTNIRQAGVQYSRADEEQQQALSSQMGF [compound 8] | far stronger response
SHHDNAAVDASSGVEAAAGL (artificial protein fragment) [compound 36, short Rv3615c peptide] | poor recognition could be compensated
KQSLTKLAAAWGGSGS (artificial protein fragment) [peptide 17, short ESAT-6 peptide] | strong epitope
GQWRGAAGTAAQAAVVRFQEAANKQKQELDEISTNIRQAG [compound 7] | far stronger response
